A value given as a limit tells only on which side of the number the result lay.

The target in this experiment is T1, UDP-3-O-acyl-N-acetylglucosamine deacetylase (Aquifex aeolicus (strain VF5), UniProt O67648).
T1 sequence (O67648 whole entry): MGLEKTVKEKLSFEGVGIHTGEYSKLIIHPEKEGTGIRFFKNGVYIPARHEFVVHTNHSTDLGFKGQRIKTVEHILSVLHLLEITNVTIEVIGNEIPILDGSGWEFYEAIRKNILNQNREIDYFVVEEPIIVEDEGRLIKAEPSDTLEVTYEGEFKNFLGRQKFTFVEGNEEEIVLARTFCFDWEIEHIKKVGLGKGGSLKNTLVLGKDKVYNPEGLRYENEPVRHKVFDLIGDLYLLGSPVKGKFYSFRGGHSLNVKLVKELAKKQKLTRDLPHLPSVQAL
The experiment can be described thus: Thermofluor. The following applies: pH 7; 25 °C. A general note: In DSF a fluorescence change marks the thermal transition of the protein.
One may read the Kd as a measure of binding affinity in units of concentration. The molecule `CC1(CNC(=O)c2ccc(-c3ccccc3)cc2)NC(=O)NC1=O` (stereo unspecified) [CS21] returned a Kd of over 100 µM.

On to `CC1(CNC(=O)c2ccc(C#Cc3ccccc3)cc2)NC(=O)NC1=O` (stereo unspecified) [CS22], for which the Kd stood at 93.4 µM.

The molecule `CC1(CNC(=O)c2ccc(-c3ccc(Br)cc3)cc2)NC(=O)NC1=O` (stereo unspecified) [CS23] showed a Kd of over 100 µM.

With `CC1(CNC(=O)c2ccc(C#CC#Cc3ccccc3)cc2)NC(=O)NC1=O` (stereo unspecified) [CS243], the Kd is 63.9 µM.

Turning to `NC[C@H](NC(=O)c1ccc(-c2ccccc2)cc1)C(=O)NO` [CS249], the Kd turned out to be 0.393 µM.

Molecule `NC[C@H](NC(=O)c1ccc(-c2ccc(Br)cc2)cc1)C(=O)NO` [CS250] yielded a Kd of 0.19 µM.

`NC[C@H](NC(=O)c1ccc(C#CC#Cc2ccccc2)cc1)C(=O)NO` [CS252] registered a Kd of 0.059 µM.

`C[C@@H](O)[C@H](NC(=O)c1ccc(-c2ccccc2)cc1)C(=O)NCC1(C)NC(=O)NC1=O` (stereo partly specified) [CS253] had a Kd of over 100 µM.

As to `C[C@@H](O)[C@H](NC(=O)c1ccc(C#Cc2ccccc2)cc1)C(=O)NCC1(C)NC(=O)NC1=O` (stereo partly specified) [CS254], the Kd was over 100 µM.

The molecule `C[C@@H](O)[C@H](NC(=O)c1ccc(C#CC#Cc2ccccc2)cc1)C(=O)NCC1(C)NC(=O)NC1=O` (stereo partly specified) [CS255] yielded a Kd of over 100 µM.

As to `C[C@@H](O)[C@H](NC(=O)c1ccc(-c2ccc(Br)cc2)cc1)C(=O)NCC1(C)NC(=O)NC1=O` (stereo partly specified) [CS256], the Kd was over 100 µM.

For `C[C@@H](O)[C@H](NC(=O)c1ccc(C#CC#Cc2ccccc2)cc1)C(=O)NO` [CS257], the Kd is 0.008 µM.

`C[C@@H](O)[C@H](NC(=O)c1ccc(-c2ccc(Br)cc2)cc1)C(=O)NO` [CS258] had a Kd of 0.033 µM. Against the preceding molecule, the Kd is about 4.1-fold higher.

The molecule `C[C@@H](O)[C@H](NC(=O)c1ccc(C#Cc2ccccc2)cc1)C(=O)NO` [CS259] gave a Kd of 0.02 µM.

With `C[C@@H](O)[C@H](NC(=O)c1ccc(-c2ccccc2)cc1)C(=O)NO` [CS263], binding was characterised by a dissociation constant (Kd) of 0.075 µM.

As for `CC1(CNC(=O)[C@H](CN)NC(=O)c2ccc(-c3ccccc3)cc2)NC(=O)NC1=O` (stereo partly specified) [CS264], the Kd is over 100 µM.

`CC1(CNC(=O)[C@H](CN)NC(=O)c2ccc(C#CC#Cc3ccccc3)cc2)NC(=O)NC1=O` (stereo partly specified) [CS265] gave a Kd of over 100 µM.

For the molecule `CC1(CNC(=O)[C@H](CN)NC(=O)c2ccc(C#Cc3ccccc3)cc2)NC(=O)NC1=O` (stereo partly specified) [CS266], the Kd was over 100 µM.

Turning to `CC1(CNC(=O)[C@H](CN)NC(=O)c2ccc(-c3ccc(Br)cc3)cc2)NC(=O)NC1=O` (stereo partly specified) [CS267], the Kd was over 100 µM.

For `O=C(NO)[C@H]1COC(c2ccc([N+](=O)[O-])cc2)=N1` [CS268], the Kd came out at 7.25 µM.

Turning to `O=C(NO)[C@H]1COC(c2ccc(OCc3cccc(F)c3)c(OC(F)(F)F)c2)=N1` [CS269], the Kd is over 100 µM.

With `O=C(NO)[C@H]1COC(c2ccc(OC(F)(F)F)c(Cl)c2)=N1` [CS270], the Kd was 3.8 µM.

The molecule `O=C(NO)[C@H]1COC(c2ccc(F)c(C(F)(F)F)c2)=N1` [CS271] yielded a Kd of 1.03 µM.

As to `O=C(NO)[C@H]1COC(c2cc3cc(F)ccc3[nH]2)=N1` [CS272], the affinity, expressed as Kd, was 2.5 µM.

The molecule `CN(C)c1ccc(C2=N[C@@H](C(=O)NO)CO2)cc1` [CS273] came in with a Kd of over 100 µM.

`CCCc1ccc(-c2ccc(C3=N[C@@H](C(=O)NO)CO3)cc2)cc1` [CS274]: binding was characterised by a dissociation constant (Kd) of 15.6 µM.

`O=C(NO)c1csc(-c2ccc(OC(F)(F)F)c(Cl)c2)n1` [CS275]: the Kd amounted to 21.5 µM.

As for `O=C(NO)C1=C[SiH2]C(c2ccc(F)cc2)=N1` (stereo unspecified) [CS276], the Kd is 28.5 µM.

As to `O=C(NO)c1csc(-c2ccc(F)c(C(F)(F)F)c2)n1` [CS277], the affinity, expressed as Kd, was 2.91 µM.

Regarding `CN(C)c1ccc(-c2nc(C(=O)NO)cs2)cc1` [CS278], the Kd is 28.2 µM.

Take `O=C(NO)[C@H]1COC(c2ccc(F)cc2)=N1` [CS279]: the Kd was found to be 11.1 µM.

The values above are taken from BindingDB's records for aid1799745 (Csar, 2012).
